The values below come from article PMC4794209, “Preformulation Studies on Piperlongumine” (PLoS ONE, 2016).

What all share (assay type): physicochemical
A short description of series [1]: n-octanol/water partitioning study. As to conditions: room temperature, read-out: Partition coefficient (log P). As for the experimental part: Piperlongumine crystals were placed in a small glass bottle containing equal volumes of n-octanol and water. The bottle was shaken for 24 hours, after which time, the bottle was allowed to equilibrate without mixing for an additional 24 hours to ensure full separation between the n-octanol and water layers. A sample from each layer was carefully withdrawn and analyzed by HPLC.

Series [2] in a line: Solubility studies (excess drug, agitation at least 24 h, HPLC).
Experiment in series [3]: as above
As for the experimental part: Solubility of piperlongumine was determined in purified water and the following cosolvent and surfactant systems: 5, 15, 30% (v/v) acetonitrile; 5, 15, 30, 50, 100% (v/v) of polyethylene glycol 400 (PEG 400), ethanol, glycerin and propylene glycol; 3, 7, 10% (w/v) of Tween 80; 2.5, 5, 10% (w/v) of Cremophor Rh 40; and a solution composition of 10% ethanol: 40% PEG 400 (w/v). Additionally, the complexing agents, sulfobutyl ether β-cyclodextrin sodium salt and hydroxyl-propyl-β-cyclodextrin, were examined at concentrations of 5, 10, 20, 40% (w/v).
An excess quantity of raw drug crystals were placed in a known volume of each medium in closed, light protected glass vials and allowed to agitate for at least 24 hours at ambient temperature. Samples were visually inspected to ensure that solid drug was still in excess and then filtered through a 0.2 μm PTFE filter. The filtrate was assayed via the previously described HPLC method and the concentration of piperlongumine in solution was determined.
The source holds these as a separate data set.

≈ marks a conversion by molar mass, not a printed value. Where two headings read alike, the source gives them in different places.

The term solubility denotes the concentration that dissolves in the medium under given conditions. On to `COc1cc(/C=C/C(=O)N2CCC=CC2=O)cc(OC)c1OC` [piperlongumine, 1-[(2E)-3-(3,4,5-trimethoxyphenyl)prop-2-enoyl]-1,2,5,6-tetrahydropyridin-2-one], for which the logP at 24 h in series [1] stood at 2.37 ± 0.12. Besides, in series [2], the “Water solubility as a function of pH” value is reported as “does not change as a function of pH”. Also, the solubility is approximately 550 µg/mL (≈ 1.73 mM) in series [3] (10% (w/v) Cremophor Rh 40, aqueous with cosolvent or surfactant or cyclodextrin, thermodynamic from solid, 10% (w/v) Cremophore Rh 40, read-out: Solubility); approximately 700 µg/mL (≈ 2.21 mM) in series [3] (10% (w/v) Tween 80, aqueous with cosolvent or surfactant or cyclodextrin, thermodynamic from solid, 10% Tween 80, read-out: Solubility); approximately 1700 µg/mL (≈ 5.36 mM) in series [3] (10% ethanol: 40% PEG 400 (w/v), aqueous with cosolvent or surfactant or cyclodextrin, thermodynamic from solid, read-out: Solubility); 1000 µg/mL (≈ 3.15 mM) in series [3] (10% ethanol: 40% PEG 400 (w/v), read-out: Solubility); approximately 1000 µg/mL (≈ 3.15 mM) in series [3] (20% (w/v) hydroxypropyl-β-cyclodextrin, aqueous with cosolvent or surfactant or cyclodextrin, thermodynamic from solid, read-out: Solubility); 1000 µg/mL (≈ 3.15 mM) in series [3] (20% (w/v) hydroxypropyl-β-cyclodextrin, read-out: Solubility). Further, the solubility in series [3] (20% (w/v) sulfobutyl ether β-cyclodextrin, aqueous with cosolvent or surfactant or cyclodextrin, thermodynamic from solid, read-out: Solubility) was approximately 1000 µg/mL (≈ 3.15 mM); in series [3] (30% (v/v) acetonitrile, aqueous with cosolvent or surfactant or cyclodextrin, thermodynamic from solid, 30% acetonitrile, read-out: Solubility), 1600 µg/mL (≈ 5.04 mM); in series [3] (50% (v/v) PEG 400, aqueous with cosolvent or surfactant or cyclodextrin, thermodynamic from solid, 50% PEG 400, read-out: Solubility), approximately 1100 µg/mL (≈ 3.47 mM); in series [3] (50% (v/v) ethanol, aqueous with cosolvent or surfactant or cyclodextrin, thermodynamic from solid, 50% ethanol, read-out: Solubility), approximately 2300 µg/mL (≈ 7.25 mM); in series [3] (100% PEG 400, organic solvent or mixture, thermodynamic from solid, pure PEG 400, read-out: Solubility), approximately 22000 µg/mL (≈ 69.3 mM); in series [3] (100% ethanol, organic solvent or mixture, thermodynamic from solid, pure ethanol, read-out: Solubility) it was approximately 11000 µg/mL (≈ 34.7 mM). Besides, the solubility is approximately 26 µg/mL (≈ 0.0819 mM) in series [3] (purified water, ambient temperature, read-out: Solubility in water (intrinsic solubility)) and 26 ± 2.9 µg/mL (≈ 0.0819 mM) in series [3] (thermodynamic from solid, purified water, ambient temperature, read-out: Solubility in water (intrinsic solubility)). The “Fold improvement in solubility” value in series [3] (30% acetonitrile vs water) was found to be 63 fold. For the same compound, the Concentrations afforded in series [3] (cosolvents and cyclodextrins) was not below 1000 µg/mL.
